By IC50 is commonly meant the concentration that inhibits the measured activity by half. A word on the Inhibition: it is the percentage by which the read-out fell short of the control. A high value points to a response far below the control.

Several values for one entry are separate records, joined by “and”; a condition that tells them apart may be missing. Equal entries are not always repeated.

Assay [1] has as its target Integrin alpha-V/beta-3 and alpha-IIb/beta 3 (Homo sapiens) (UniProt P05106+P06756+P08514). Description: Ratio of inhibitory activity against human alpha V beta-3 integrin to that of alpha IIb beta-3 integrin. It counts as protein assay.
The species entered for a further assay is Homo sapiens. Kind of assay: Inhibition of human vascular smooth muscle proliferation was determined. It counts as functional. The settings on record: Muscle tissue.
For assay [2], the target named is Integrin alpha-IIb/beta-3 (Homo sapiens, UniProt P05106+P08514). Description: Inhibitory activity was determined against human alpha IIb beta3 integrin. Format: protein-complex assay.
Chain of Integrin alpha-IIb/beta-3 (P05106 27-788 limits assumed): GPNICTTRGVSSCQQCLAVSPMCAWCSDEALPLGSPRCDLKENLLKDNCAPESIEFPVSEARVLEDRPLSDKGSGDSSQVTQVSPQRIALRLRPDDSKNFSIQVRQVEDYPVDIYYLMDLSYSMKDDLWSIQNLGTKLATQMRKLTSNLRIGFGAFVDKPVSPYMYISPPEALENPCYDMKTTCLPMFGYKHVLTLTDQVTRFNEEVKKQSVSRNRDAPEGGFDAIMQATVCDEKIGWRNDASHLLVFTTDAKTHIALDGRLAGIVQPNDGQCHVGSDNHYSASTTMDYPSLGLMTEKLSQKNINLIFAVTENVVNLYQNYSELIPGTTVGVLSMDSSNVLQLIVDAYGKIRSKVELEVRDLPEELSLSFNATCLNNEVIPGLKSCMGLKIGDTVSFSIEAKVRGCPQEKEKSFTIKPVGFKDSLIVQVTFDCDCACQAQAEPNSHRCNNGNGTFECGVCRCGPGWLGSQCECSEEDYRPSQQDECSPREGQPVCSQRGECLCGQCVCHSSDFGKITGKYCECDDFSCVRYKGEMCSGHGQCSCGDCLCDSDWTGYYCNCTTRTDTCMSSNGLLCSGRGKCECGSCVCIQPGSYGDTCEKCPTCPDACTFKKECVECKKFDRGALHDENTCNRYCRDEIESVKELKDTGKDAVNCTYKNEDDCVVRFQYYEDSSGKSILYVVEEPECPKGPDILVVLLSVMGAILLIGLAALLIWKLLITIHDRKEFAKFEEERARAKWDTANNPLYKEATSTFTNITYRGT
Chain of Integrin alpha-IIb/beta-3 (P08514 32-887 limits assumed): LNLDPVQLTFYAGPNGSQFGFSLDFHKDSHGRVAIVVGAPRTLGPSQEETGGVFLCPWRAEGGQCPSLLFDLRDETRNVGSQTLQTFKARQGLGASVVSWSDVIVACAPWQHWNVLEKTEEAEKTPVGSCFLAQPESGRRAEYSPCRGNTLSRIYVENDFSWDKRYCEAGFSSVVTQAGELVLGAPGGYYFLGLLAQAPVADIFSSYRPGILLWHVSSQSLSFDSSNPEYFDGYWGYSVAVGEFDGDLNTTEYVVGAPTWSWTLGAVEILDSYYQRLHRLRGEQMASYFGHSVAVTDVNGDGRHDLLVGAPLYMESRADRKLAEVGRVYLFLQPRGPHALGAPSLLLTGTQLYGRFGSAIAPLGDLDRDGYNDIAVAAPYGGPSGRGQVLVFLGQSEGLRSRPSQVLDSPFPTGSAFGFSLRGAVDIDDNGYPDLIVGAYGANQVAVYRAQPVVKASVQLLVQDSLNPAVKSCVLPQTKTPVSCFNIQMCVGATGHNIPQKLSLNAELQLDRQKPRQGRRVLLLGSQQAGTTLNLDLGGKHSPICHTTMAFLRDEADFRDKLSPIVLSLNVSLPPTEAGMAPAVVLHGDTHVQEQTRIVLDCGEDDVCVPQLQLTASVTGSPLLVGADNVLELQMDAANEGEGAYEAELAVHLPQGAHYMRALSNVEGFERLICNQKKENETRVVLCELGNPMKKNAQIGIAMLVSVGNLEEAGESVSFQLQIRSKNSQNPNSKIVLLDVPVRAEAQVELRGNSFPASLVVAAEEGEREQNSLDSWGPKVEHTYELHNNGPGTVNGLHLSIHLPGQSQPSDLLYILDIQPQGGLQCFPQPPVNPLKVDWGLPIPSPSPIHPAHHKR
Chain of Integrin alpha-IIb/beta-3 (P08514 891-1039 limits assumed): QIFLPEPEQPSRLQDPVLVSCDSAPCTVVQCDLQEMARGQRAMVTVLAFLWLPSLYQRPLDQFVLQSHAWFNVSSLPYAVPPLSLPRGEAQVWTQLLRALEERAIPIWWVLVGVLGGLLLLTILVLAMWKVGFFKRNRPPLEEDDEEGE
Assay [3] concerns Rattus norvegicus. Kind of assay: Antistenoic effect infused subcutaneously at a constant rate of 0.14 umol/rat/day. Format: functional.
Assay [4] has as its system Rattus norvegicus. Description: Antistenoic effect infused subcutaneously at a constant rate of 1.3 umol/rat/day. Format: functional.
Assay [5] relates to Rattus norvegicus. Kind of assay: Antistenoic effect infused subcutaneously at a constant rate of 0.43 umol/rat/day. It counts as functional.
Assay [6] has as its system Rattus norvegicus. Kind of assay: Ratio of Intima area to media area was tested by subcutaneous infusion of compound at a constant rate of 1.3 umol/rat/day. It counts as functional.
A further assay has as its target Integrin alpha-V/beta-3 (Homo sapiens, UniProt P05106+P06756). Kind of assay: Inhibitory activity was determined against human vitronectin receptor (alpha V beta 3). Format: protein-complex assay.

Chain of Integrin alpha-V/beta-3 (P05106 27-788 limits assumed): as the sequence (P05106 27-788 limits assumed) above
Chain of Integrin alpha-V/beta-3 (P06756 31-889 limits assumed): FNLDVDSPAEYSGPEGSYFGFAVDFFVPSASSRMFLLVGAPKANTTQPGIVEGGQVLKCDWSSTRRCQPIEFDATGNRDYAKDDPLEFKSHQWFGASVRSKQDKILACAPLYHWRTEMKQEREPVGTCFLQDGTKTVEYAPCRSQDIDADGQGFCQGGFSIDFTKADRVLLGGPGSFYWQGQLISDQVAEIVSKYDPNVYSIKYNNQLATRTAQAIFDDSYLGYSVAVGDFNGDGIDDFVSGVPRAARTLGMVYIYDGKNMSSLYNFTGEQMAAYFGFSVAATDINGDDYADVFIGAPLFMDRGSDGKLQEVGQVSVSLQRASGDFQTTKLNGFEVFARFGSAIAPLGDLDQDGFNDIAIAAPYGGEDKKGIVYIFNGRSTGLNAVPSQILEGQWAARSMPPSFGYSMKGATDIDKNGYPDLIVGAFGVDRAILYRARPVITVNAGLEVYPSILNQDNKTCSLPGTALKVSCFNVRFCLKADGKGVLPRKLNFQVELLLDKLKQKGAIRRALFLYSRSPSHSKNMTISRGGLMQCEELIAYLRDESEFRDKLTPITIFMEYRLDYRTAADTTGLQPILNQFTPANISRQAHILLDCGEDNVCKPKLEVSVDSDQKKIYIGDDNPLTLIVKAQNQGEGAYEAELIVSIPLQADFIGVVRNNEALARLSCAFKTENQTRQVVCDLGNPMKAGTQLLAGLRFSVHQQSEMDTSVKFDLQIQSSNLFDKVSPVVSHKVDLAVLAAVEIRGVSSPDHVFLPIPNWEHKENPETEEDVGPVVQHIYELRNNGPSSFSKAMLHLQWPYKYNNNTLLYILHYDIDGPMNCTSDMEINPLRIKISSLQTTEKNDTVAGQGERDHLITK
Chain of Integrin alpha-V/beta-3 (P06756 891-1048 limits assumed): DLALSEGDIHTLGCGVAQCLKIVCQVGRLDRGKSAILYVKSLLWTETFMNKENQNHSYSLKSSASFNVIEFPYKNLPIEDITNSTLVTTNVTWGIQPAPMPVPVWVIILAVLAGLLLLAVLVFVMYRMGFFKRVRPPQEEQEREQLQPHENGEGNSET

Turning to `CC(C)COC(=O)N[C@@H](CCC(=O)N1CCN(c2cccc(NC3=NCC(O)CN3)c2)CC1)C(=O)O` (stereo partly specified), in assay [1], the Ratio was above 33000. Moreover, the IC50 in the assay listed under Homo sapiens is 2000 nM; in assay [2], above 1000 nM.
With `O=C(N[C@@H](CCC(=O)N1CCN(c2cccc(NC3=NCCN3)c2)CC1)C(=O)O)OCc1ccccc1`, in assay [1], the Ratio amounted to 4500. The compound also had an IC50 in the assay listed under Homo sapiens of 3000 nM.
For `Cc1cc(C)c(S(=O)(=O)N[C@@H](CCC(=O)N2CCN(c3cccc(NC4=NCCCN4)c3)CC2)C(=O)O)c(C)c1` the same measures were 140 and above 10000 nM.
In the case of `CC(C)COC(=O)N[C@@H](CCC(=O)N1CCN(c2cccc(NC3=NCC(F)CN3)c2)CC1)C(=O)O` (stereo partly specified), the Inhibition in the assay on Rattus norvegicus [3] is 21%; in the assay on Rattus norvegicus [4], 54% and 53%; with Rattus norvegicus [5], 38%. Also, the Ratio in assay [1] was above 18000. Also, in the assay with Rattus norvegicus [4], the Intima area is 81 10e3 um2 and 162 10e3 um2. The 50% inhibitory concentration (IC50) in the assay filed under Homo sapiens is 180 nM; in assay [2], above 1000 nM. Moreover, in the assay with Rattus norvegicus [6], the intima/media ratio came to 0.5.
Turning to `O=C(N[C@@H](CCC(=O)N1CCN(c2cccc(NC3=NCC(F)CN3)c2)CC1)C(=O)O)OCc1ccccc1` (stereo partly specified), the Ratio in assay [1] turned out to be 8600. Further, in the assay on Rattus norvegicus [4], the Inhibition was 38% and 34%; the Intima area is 113 10e3 um2 and 149 10e3 um2. This compound also came in with an IC50 in the assay filed under Homo sapiens of 260 nM. For the same compound, the intima/media ratio in the assay on Rattus norvegicus [6] came out at 0.76.
Turning to `O=C(N[C@@H](CCC(=O)N1CCN(c2cccc(NC3=NCCCCN3)c2)CC1)C(=O)O)OCc1ccccc1`, the Ratio in assay [1] was above 18000. In addition, the values for the half-inhibitory concentration (IC50) (in the assay listed under Homo sapiens; in assay [2]) were 1700 nM and above 1000 nM, respectively.
In the case of `O=C(NCc1ccccc1)N[C@@H](CCC(=O)N1CCN(c2cccc(NC3=NCCCN3)c2)CC1)C(=O)O`, the Ratio in assay [1] was above 710. Moreover, the values for the IC50 (in the assay filed under Homo sapiens; in assay [2]) were above 10000 nM and above 1000 nM, respectively.
For `O=C(Cc1ccccc1)N[C@@H](CCC(=O)N1CCN(c2cccc(NC3=NCCCN3)c2)CC1)C(=O)O`, in assay [1], the Ratio was above 150. Moreover, the IC50 in the assay listed under Homo sapiens was above 10000 nM; in assay [2] it was above 1000 nM.
For `CC(C)COC(=O)N[C@@H](CCC(=O)N1CCN(c2cccc(NC3=NCCCN3)c2)CC1)C(=O)O` the same measures were above 3100, 910 nM and above 1000 nM.
As to `O=C(N[C@@H](CCC(=O)N1CCN(c2cccc(NC3=NCC(O)CN3)c2)CC1)C(=O)O)OCc1ccccc1` (stereo partly specified), the Ratio in assay [1] is 2300. In the assay listed under Homo sapiens, the IC50 stood at 3500 nM.
Turning to `O=C(N[C@@H](CCC(=O)N1CCN(c2cccc(NC3=NCCCN3)c2)CC1)C(=O)O)OCc1ccccc1`, in assay [1], the Ratio amounted to 11000. Also, the half-maximal inhibitory concentration (IC50) was 0.058 nM against Integrin alpha-V/beta-3, 1100 nM in the assay filed under Homo sapiens and 660 nM in assay [2].
As for `O=C(O)[C@H](CCC(=O)N1CCN(c2cccc(NC3=NCCCN3)c2)CC1)NS(=O)(=O)c1ccccc1`, the Ratio in assay [1] was 63. Also, the IC50 at Integrin alpha-V/beta-3 is 1.4 nM; in the assay filed under Homo sapiens it was above 10000 nM; in assay [2], 88 nM.
For `CCOC(=O)N[C@@H](CCC(=O)N1CCN(c2cccc(NC3=NCCCN3)c2)CC1)C(=O)O`, in assay [1], the Ratio was above 1700. Further, the half-inhibitory concentration (IC50) in the assay listed under Homo sapiens is 2100 nM; in assay [2], above 1000 nM.
The like results for `CC(C)COC(=O)N[C@@H](CCC(=O)N1CCN(c2cccc(NC3=NCC(C)(C)CN3)c2)CC1)C(=O)O` were, in that order, above 2600, 3400 nM and above 1000 nM.
Take `CCNC(=O)N[C@@H](CCC(=O)N1CCN(c2cccc(NC3=NCCCN3)c2)CC1)C(=O)O`: the Ratio in assay [1] was above 280. For the same compound, the IC50 in the assay filed under Homo sapiens was above 10000 nM; in assay [2], above 1000 nM.
